We go through one compound from PMC6738068 (British Journal of Cancer, 2019).

Each structure is given as a SMILES string. “And” between values parts separate entries of the source, which are not always exact repeats. Equal values may be shown once.

Data set [1] relates to cytochrome P450 (CYP) enzyme 1A2. Further details: method as in printed. Conditions: preclinical testing, ref not given; cited from earlier work.
Another data set relates to advanced solid tumours. Briefly: Phase 1 efficacy assessment (RECIST v1.1). In kind it is in vivo, human. As to the method: Diagnostic imaging response assessments (computed tomography or magnetic resonance imaging) were performed at baseline and at the end of every two cycles or as clinically indicated. All patients who had at least one post-baseline radiographic assessment of target, non-target, and new lesions constituted the efficacy-evaluable population. Patients were evaluated for complete response (CR), partial response (PR), stable disease (SD) ≥6 months, or progressive disease as determined by RECIST v1.1.[17] Objective response rate (ORR = CR + PR) and clinical benefit rate (CBR = CR + PR + SD ≥ 6 months) were evaluated. Data cut-off for the efficacy-evaluable population was January 21, 2019.

The mark [2] stands for this setting: efficacy-evaluable population (n = 49).
Setting [3] is: patient with AKT1 E17K mutant endometrioid endometrial carcinoma.
The mark [4] stands for this setting: patient with MSS endometrial carcinoma.

In the case of `COc1ccc2c(c1)[C@]1(C[C@H]1c1ccc3c(/C=C/c4ccc(CN5C[C@@H](C)O[C@@H](C)C5)cc4)n[nH]c3c1)C(=O)N2` [CFI-400945], the “induction of CYP1A2” value in data set [1] is reported as “inducer”. The “Progressive disease as best response” value in the data set with advanced solid tumours (35/49 patients) is given as 71%. Besides, the “patients with SD ≥6 months” value with advanced solid tumours (RECIST v1.1) was “two and 2/13”. Besides, in the data set on advanced solid tumours (adenoid cystic carcinoma, 48 mg), the “partial responses (PR)” value was “One PR”. In the data set on advanced solid tumours (efficacy-evaluable cohort, 1/49), this compound came in with an ORR of 2%. In the data set on advanced solid tumours (efficacy-evaluable cohort, 3/49), this compound yielded a CBR of 6%. In the data set with advanced solid tumours (setting [2]), the “complete responses (CR)” value is given as “No CRs”; the “duration on study, range” value is 0.1–40.7 months; the “median duration on study” value was determined as 1.9 months; the median progression-free survival is 3.2 months. Also, in the data set on advanced solid tumours (setting [2]), the “patients with SD as best response” value is on record as 13 patients and the “progression-free survival, 95% confidence interval” value is reported as 1.6–4.9 months. Moreover, the “lowest dose with evidence of antitumour activity” value with advanced solid tumours (in vivo) was found to be 48 mg. Also, in the data set with advanced solid tumours (setting [3]), the target lesion reduction was −19% and the “time on study with SD” value was 6 cycles. Also, the time on study in the data set on advanced solid tumours (patient with KRAS-mutant, MSS colorectal cancer, 48 mg) is on record as 12 cycles. In the data set on advanced solid tumours (setting [4]), the “duration of SD” value is 8 cycles and the “reduction in target lesions” value is reported as 3.7%. Further, in the data set on advanced solid tumours (patient with adenoid cystic carcinoma, 48 mg), the “duration of PR / time on trial, ongoing at data cut-off” value is 45 cycles.
